Experimental data taken from article PMC5307958 (Scientific Reports, 2017).
Bridges are numbered along the chain shown (N, C = ends). Where no end group is shown, it is not given here.

Tests used:
[1] = test system: auditory nerve and generators caudal to the IC; experiment: Auditory brainstem responses (ABR); type: in vivo, mouse
Method: (§1) The temperature was maintained near 25 °C.
ABR recordings were acquired after the mice were anesthetized with ketamine (120 mg/kg) and xylazine (10 mg/kg) I.P., and respiration was monitored throughout to determine when additional supplemental doses were needed. Body temperature was kept constant at 37 °C using a feedback controlled heating pad (Physitemp TCAT2-LV Controller, Clifton, NJ). Stimuli and recordings were generated digitally and controlled using a TDT RZ6 Multi-I/O Processor and their BioSig/SigGen software. Acoustic signals were played through a multi-field (MF1) magnetic speaker (TDT, Alachua, FL) with a total harmonic distortion < = 1% from 1 kHz to 50 kHz, centered 0° azimuth in regards to the animal at a distance of 10 cm from the ear pinna. Tone bursts were presented at frequencies of 6, 12, 16, 20, 24, and 36 kHz (3 ms duration, 1 ms rise/fall time, alternating polarity) at a rate of 29 per second, attenuated in 5 dB steps from 80 dB SPL to 15 dB below threshold or 5 dB SPL, whichever was lower. Threshold was determined by visual inspection as the lowest intensity level which produced a defined wave in both replicates. All signals were calibrated using a Larsen Davis preamplifier, model 2221, with a 1/4″ microphone and a Larson Davis CAL200 Precision Acoustic Calibrator (PCB Piezotronics, Inc., Depew, NY). ABR recordings were acquired using a TDT RA4LI low-impedance digital headstage and RA4PA Medusa preamp with the active (noninverting) electrode inserted at the vertex, the reference (inverting) electrode below the left ear, and the ground electrode below the right ear. The responses were amplified (20×), filtered (300 Hz–3 kHz), and averaged using BioSig software and the System III hardware (TDT) data-acquisition system. A total of 256 tone burst signal and 150 GIN signal recordings were replicated for each acquisition, and muscle artifacts exceeding 7 μV were rejected from the averaged response. All recordings took place in a soundproof booth lined with echo-attenuating acoustic foam. ABR waveforms were analyzed using a custom MatLab program that automatically determined peak latencies and amplitudes in combination with secondary verification by an experimenter blind to the treatment group.

[2] = Blood-brain barrier crossing inferred from functional activity in the IC; type: in vivo, mouse; details: inferred from suppression of sound evoked activity after topical (dura) or systemic (0.3 mg/kg I.P.) administration
Method: as §1

BK channel = details: small molecule BK channel blocker; cited from earlier work
Text: CNS pharmacological applications favor pharmaceutical agents with high affinity, specificity, amenability to large-scale synthesis and BBB permeability. Peptide drugs have the potential for high affinity and specific binding to ion channel targets, as shown by voltage-gated potassium channel (Kv) peptide toxins. In addition to natural products, phage display screens have successfully selected peptides with high target affinity. For example, a phage display screen of scorpion toxin derivatives selected a novel peptide that blocks the Kv3.1 channel in the nanomolar range[41]. Here, a phage displ ...

[3] = test system: mouse inferior colliculus (auditory midbrain); experiment: Sound evoked activity within excitatory receptive field (eRF), topical application on dura
[4] = cited from earlier work
Text: A pharmacological agent must cross the BBB in order to act at CNS-located targets. […] Many ion channel-targeted peptides are regarded as having low BBB permeability due to the large difference between the lethal dose when administered peripherally versus centrally. For example, the LD50 for peripherally administered dendrotoxin is in the tens of mg/kg, while it is ten thousand fold l ...

[5] = target: T1, human BKα channel (ZERO isoform) expressed in HEK293 cells (Homo sapiens, UniProt Q12791); experiment: Patch-clamp recording, inside-out patches, extracellular application; type: cell-based; details: for effect on Po (post vs. pre peptide): 500 nM linear (reduced) LS3, extracellular, any voltage, compared with 500 nM cyclic LS3
T1 construct: expressed in transfected cells; host or cells: HEK293 (ATCC), transient transfection with Lipofectamine 2000; EGFP cotransfected as a separate marker
T1 sequence (Q12791 1-1178 isoform Q12791-5): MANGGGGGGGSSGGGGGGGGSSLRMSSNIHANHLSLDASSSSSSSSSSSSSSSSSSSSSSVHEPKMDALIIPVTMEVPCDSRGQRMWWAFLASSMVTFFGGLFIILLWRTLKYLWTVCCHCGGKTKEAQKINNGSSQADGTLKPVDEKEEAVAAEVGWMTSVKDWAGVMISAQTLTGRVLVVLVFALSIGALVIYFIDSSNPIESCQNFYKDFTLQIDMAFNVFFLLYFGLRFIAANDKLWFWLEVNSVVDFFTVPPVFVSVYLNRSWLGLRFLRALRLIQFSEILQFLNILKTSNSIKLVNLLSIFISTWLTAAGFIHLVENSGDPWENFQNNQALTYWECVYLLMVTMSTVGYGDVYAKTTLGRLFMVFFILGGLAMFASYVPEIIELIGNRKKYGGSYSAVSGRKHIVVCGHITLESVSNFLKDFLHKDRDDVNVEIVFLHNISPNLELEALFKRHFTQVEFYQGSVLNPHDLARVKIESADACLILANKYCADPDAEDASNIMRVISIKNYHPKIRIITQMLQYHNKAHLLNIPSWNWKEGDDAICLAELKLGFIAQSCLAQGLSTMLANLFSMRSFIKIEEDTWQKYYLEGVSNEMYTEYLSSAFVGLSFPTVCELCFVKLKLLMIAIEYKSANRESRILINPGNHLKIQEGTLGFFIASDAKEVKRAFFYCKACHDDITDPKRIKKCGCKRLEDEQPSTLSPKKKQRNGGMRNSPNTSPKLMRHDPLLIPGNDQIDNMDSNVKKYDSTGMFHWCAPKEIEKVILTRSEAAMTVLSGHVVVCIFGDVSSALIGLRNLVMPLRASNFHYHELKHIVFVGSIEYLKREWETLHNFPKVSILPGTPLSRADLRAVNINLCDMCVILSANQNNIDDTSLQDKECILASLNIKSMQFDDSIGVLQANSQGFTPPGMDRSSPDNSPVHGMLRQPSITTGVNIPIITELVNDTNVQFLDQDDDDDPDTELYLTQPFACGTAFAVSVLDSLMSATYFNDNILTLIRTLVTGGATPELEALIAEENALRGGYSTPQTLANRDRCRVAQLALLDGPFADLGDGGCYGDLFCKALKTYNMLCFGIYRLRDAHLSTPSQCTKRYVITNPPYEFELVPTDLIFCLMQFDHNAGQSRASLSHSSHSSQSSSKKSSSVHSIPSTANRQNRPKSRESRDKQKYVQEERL
Method: HEK293 cells (ATCC, Manassas, VA) were grown according to standard procedures. Cells were cultured at 37 °C in a 5% CO2 atmosphere in Dulbecco’s modified Eagle’s medium with L-glutamine, sodium pyruvate and 10% fetal bovine serum (Invitrogen). Cell lines were split with trypsin/EDTA in Hanks’ balanced salt solution (Invitrogen) up to 25–30 cycles. For phage display, stable lines stably expressed rSK2 or hBKα ZERO isoform. Cells were transfected (Lipofectamine 2000, Invitrogen) with hGlyRα1 and used 48 hours later. For electrophysiological recordings, cells were transfected with hBKα ZERO isoform. Enhanced green fluorescent protein (EGFP) was cotransfected as a marker. Electrophysiological recordings were made 16–72 h after transfection. Although the profile of BK channel composition varies from tissue to tissue, the ZERO BK channel splice variant is widely expressed, particularly in the nervous system, serving as a representative form for studying the modulation of BK channel gating.
Voltage-clamp recordings were performed at room temperature (22–24 °C) using an inside-out configuration on patches pulled from HEK293 cells. The extracellular solution contained the following (in mM): 2 KCl, 136 KOH, 20 HEPES, 2 MgCl2, adjusted to pH 7.2 with MeSO3H. In order to apply peptide to the extracellular surface, patch electrodes (7–20 MΩ in resistance) were tip-filled with normal extracellular solution and backfilled with extracellular solution containing LS3. Enough normal extracellular solution was included to provide at least five minutes of peptide-free recording (determined by plotting Po vs. time). The intracellular solution (in the bath) contained the following (in mM): 6 KCl, 132 KOH, 20 HEPES, adjusted to pH 7.2 with MeSO3H. To achieve 750 nM free Ca^2+, […] and 5 mM EGTA were included, a ratio verified by measurement with a Ca^2+-sensitive electrode. Voltage-clamp recordings made with an Axopatch 200 A amplifier and custom macros in IgorPro. Analysis was performed with QUB (http://www.qub.buffalo.edu), including Po, mean open time and three component exponential fits to closed dwell times. Group means±SEM for post-peptide measures were plotted relative to pre-peptide values and compared with pre values via planned paired t-tests.

[6] = target: T2, human BKα channel (ZERO isoform) (human) (UniProt O95259)
T2 sequence: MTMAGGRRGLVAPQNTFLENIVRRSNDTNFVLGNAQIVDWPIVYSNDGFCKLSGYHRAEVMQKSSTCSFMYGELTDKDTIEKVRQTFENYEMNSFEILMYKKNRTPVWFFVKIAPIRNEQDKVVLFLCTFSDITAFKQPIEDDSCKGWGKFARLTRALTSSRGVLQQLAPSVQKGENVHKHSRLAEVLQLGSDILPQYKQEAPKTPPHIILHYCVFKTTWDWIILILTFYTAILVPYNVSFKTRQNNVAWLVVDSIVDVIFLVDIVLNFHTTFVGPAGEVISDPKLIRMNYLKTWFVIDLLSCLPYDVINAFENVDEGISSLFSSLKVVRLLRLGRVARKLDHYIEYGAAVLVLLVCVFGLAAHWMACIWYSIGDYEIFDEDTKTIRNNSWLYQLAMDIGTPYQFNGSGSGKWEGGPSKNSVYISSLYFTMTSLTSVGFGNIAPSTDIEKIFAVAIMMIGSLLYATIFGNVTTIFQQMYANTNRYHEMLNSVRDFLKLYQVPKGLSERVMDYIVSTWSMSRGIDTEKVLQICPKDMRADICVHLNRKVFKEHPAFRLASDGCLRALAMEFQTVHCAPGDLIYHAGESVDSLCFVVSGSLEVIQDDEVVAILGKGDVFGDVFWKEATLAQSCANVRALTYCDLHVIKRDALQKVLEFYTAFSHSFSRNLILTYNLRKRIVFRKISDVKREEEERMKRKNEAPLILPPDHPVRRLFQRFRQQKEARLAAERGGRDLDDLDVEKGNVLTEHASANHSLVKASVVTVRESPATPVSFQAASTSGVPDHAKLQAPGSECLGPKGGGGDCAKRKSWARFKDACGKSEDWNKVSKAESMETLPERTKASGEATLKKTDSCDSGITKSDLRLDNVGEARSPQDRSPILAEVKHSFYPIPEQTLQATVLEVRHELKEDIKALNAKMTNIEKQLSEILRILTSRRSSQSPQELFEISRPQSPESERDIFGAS

[7] = target: comprehensive panel of mammalian CNS-based proteins; experiment: radioligand binding; competition binding assays (NIMH PDSP): 10 microM LS3 against known radioligands for 33 targets; percent inhibition measured 4 times for each receptor; less than 50% inhibition considered insignificant

For `CC(C)(O)[C@H]1O[C@H]2CC[C@@]3(C)[C@@](O)(CC[C@H]4Cc5c([nH]c6ccccc56)[C@@]43C)C2=CC1=O` [paxilline, reference compound], the “mean ABR thresholds” value ([1]; 4 hours post I.P. injection vs. baseline, tone bursts) was “No significant effect”, the “ABR peak 1 (P1) amplitude by intensity functions” value ([1]; systemic (I.P.) injection, 4 hrs vs. baseline, auditory nerve) was “Neither BK channel modulator reduced auditory nerve (P1)” and the “ABR peak 4 (P4) amplitude by intensity functions” value ([1]; systemic (I.P.) injection, 4 hrs vs. baseline, generators caudal to the IC (brainstem)) was “Neither BK channel modulator reduced auditory nerve (P1) or brainstem (P4) amplitudes”. The “ability to cross the BBB” value [2] was “can cross the BBB”, the “IC50 (BK channel block)” value (BK channel) was “low nanomolar” and the “time course of suppression of sound evoked activity” value ([3]; 1 μL of 10 μM paxilline, 51 units, F(12,430) = 4.146 P < 0.0001) was “suppression of sound evoked activity increasing out to 6 hours”. The “reduction in sound driven activity” value ([3]; 1 μL of 10 μM paxilline, 5 hours post-application, N = 5 mice) was 87%, the “reduction of maximum spike counts” value ([3]; 1 μL of 10 μM paxilline, within 30 minutes, 51 units) was 50% and the maximum spike counts ([3]; 1 μL of 10 μM paxilline, within 30 minutes, baseline 375, 51 units) was 180 spikes. The “reduction of sound evoked driven activity within the RF” value ([3]; 1 μL of 10 μM stock, from baseline pre-peptide, Fig. 5A,B representative eRFs) was “approximately 50%”.

For “apamin: a small Kv toxin at 18 aa (CNCKAPETALCARRCQQH-NH2; disulfide 1-11, 3-15; ends not checked; UniProt P01500 28-45, looked up)”, the CNS availability ([4]; in contrast to many ion channel-targeted peptides) is listed as “higher CNS availability” and the “effect on learning and memory-related behaviors” value ([4]; intraperitoneal injection at a similar concentration used in this paper) is listed as “alter learning and memory-related behaviors”.

In the case of dendrotoxin, the “LD50, intraventricular injection, relative to peripheral” value [4] is listed as “ten thousand fold lower” and the “LD50, peripherally administered” value [4] is listed as “tens”.

In the case of “linearized version of LS3: linearized version of LS3 without the disulfide bridge (CRRGLVQVC)”, the “effect on Po (post vs. pre peptide)” value [5] is reported as “no significant reduction in Po at any voltage”, the “effect on Po (post vs. pre peptide)” value ([5]; listed as linear peptide) is reported as “lack of effect” and the “effect on Po (post vs. pre peptide)” value ([5]; listed as reduced form of LS3) is reported as “did not alter Po”. For the same molecule, the “potency relative to cyclic LS3” value ([5]; linearized version without the disulfide bridge, Po) was “less potent”.

CRRGLVQVC (disulfide 1-9) [LS3 (… with a 1–9 disulfide bridge)] showed a post-peptide Po relative to pre-peptide Po at 40 mV, 500 nM LS3 [6] of 0.54, a Ki [7] of over 10 µM and a percent inhibition of radioligand binding at 10 microM LS3 [7] of under 50%.
